# Assay results: US5216124A, “Substituted cyclic tetrapeptides” (G. D. Searle & Co., priority 1991, dated 1993)
# Where a name gives a salt, the structure may show the parent alone. Positions of bridges follow the written chain, without caps; N, C: chain ends. Non-standard residues stand in square brackets, D forms with d. Residues, ends and D or L forms follow the SMILES beside them. Phe(4-F) = N[C@@H](Cc1ccc(F)cc1)C(=O)O; Dmt = Cc1cc(O)cc(C)c1C[C@H](N)C(=O)O; NMeCha = CN[C@@H](CC1CCCCC1)C(=O)O; NMeF = CN[C@@H](Cc1ccccc1)C(=O)O; 2Thi = N[C@@H](Cc1cccs1)C(=O)O; Cha = N[C@@H](CC1CCCCC1)C(=O)O; dPen = CC(C)(S)[C@@H](N)C(=O)O
# Assays:
# δ opioid receptors = δ opioid receptors (Rattus norvegicus, UniProt P33533); assay: Opiate Binding Assay, displacement of 3[H]-DSLET; conditions: ratio of mean IC50 μ to δ, above 1.0 = more specific for δ
# CD Charles River mice = assay: Writhing Assay (PBQ-induced writhing); assay type: in vivo, mouse; conditions: for number of mice out of ten in which peptide was active, Intragastric: 10 mg/kg i.g., PBQ i.p. 15 min after dosing; for number of mice out of ten in which peptide was active, Subcutaneous: 10 mg/kg s.c., PBQ i.p. 25 min after dosing
# Text: The "Writhing Assay" is one of the most widely-used experimental procedures for measuring the analgesic activity of different narcotic and nonnarcotic analgesic agents, and involves the continuous, chemically-induced pain of visceral origin to an animal, such as a mouse or rat. [Gyires et al., Arch. int. Pharmacodyn, 267, 131-140 (1984); C. Vander Wende et al., Fed. Proc., 15, 494 (1956); Koster et al., Fed. Proc., 18, 412 (1959); and Witken et al., J. Pharmacol. Exp. Ther., 133, 400-408 (1961). ] Chemicals which may be used to induce this pain include phenylbenzoquinone (PBQ) and acetic acid. As a result of the chemical irritation to the animal, a characteristic stretching and writhing of the animal (dorsiflexion of the animal's back, extension of its hindlimbs an the strong contraction of its abdominal musculature) will generally occur. […] Drugs which reduce the number of writhes of the animal appear to restore the normal nociceptive threshold of the animal.
# This assay was conducted generally in the manner described by R. I. Taber, "Predictive Value of Analgesic Assays in Mice and Rats,"Advances in Biochemical Psychopharmacology, 8, 191 (1974). The Methyl Ester Tetrapeptide and Test Tetrapeptides Nos. 1, 3, 4, 5, 6, 7, 8 and 9 were tested in this assay.
# Two hundred CD Charles River mice, weighing 20 to 30 grams were used in this assay.
# Twenty-five minutes after subcutaneous administration, and fifteen minutes after intragastric administration, to the mice of 10 mg per kilogram of body weight of either a Test Tetrapeptide or the Methyl Ester Tetrapeptide, […] of body weight of a 0.025% w/v solution of PBQ was injected intraperitoneally into each mouse. Some mice were given saline in place of a Test Tetrapeptide or the Methyl Ester Tetrapeptide, and were used as a control group.
# Five minutes later, each mouse was individually placed into a glass beaker for observation, and the number of writhes occurring during the following ten-minute period was counted.
# A tetrapeptide compound was considered to be "active" (to have produced analgesia in a mouse) if, in accordance with the conditions set forth above, and under the test criteria employed for this assay, after the administration of 10 mg per kilogram of body weight of the tetrapeptide to the mouse, the number of writhes elicited by a mouse injected with PBQ was equal to, or less than, one-half the median number of writhes recorded for the saline-treated control group of mice that day, as described by R. I. Taber, supra.
# The standard initial screening dose of a compound employed in this assay was 10 mg per kilogram (mpk) of body weight for both routes of administration. If this initial screening dose of the tetrapeptide produced analgesia in seven of ten mice, then the effect of additional doses of the tetrapeptide on the writhing response was evaluated, and then the ED50 value (that dose of a Test Tetrapeptide or the Methyl Ester Tetrapeptide which produced analgesia in 50% of the mice to which the tetrapeptide was administered) was generally calculated. A maximum likelihood function was used to determine the ED50 value. (The slopes of the dose-response curves for all tetrapeptides analyzed were compared as described by Tallarida and Murray, Manual of Pharmacologic Calculations, Page 11 (Springer Verlag, N.Y., 1981)).
# Sequence of δ opioid receptors (P33533 whole entry): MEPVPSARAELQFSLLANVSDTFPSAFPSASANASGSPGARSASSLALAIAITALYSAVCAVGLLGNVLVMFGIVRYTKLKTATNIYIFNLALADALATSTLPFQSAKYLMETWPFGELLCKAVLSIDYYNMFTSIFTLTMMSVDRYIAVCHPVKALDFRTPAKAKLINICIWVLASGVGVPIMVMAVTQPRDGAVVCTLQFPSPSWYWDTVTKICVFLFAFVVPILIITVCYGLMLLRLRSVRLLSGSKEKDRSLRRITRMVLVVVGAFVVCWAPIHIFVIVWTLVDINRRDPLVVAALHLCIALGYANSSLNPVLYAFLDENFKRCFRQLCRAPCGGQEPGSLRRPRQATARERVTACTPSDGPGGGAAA
Compound,Mean IC50 Value μ/δ Ratio (δ opioid receptors),Mean IC50 Value μ/δ Ratio (δ opioid receptors; monohydrochloride),"number of mice out of ten in which peptide was active, Intragastric (CD Charles River mice)","number of mice out of ten in which peptide was active, Subcutaneous (CD Charles River mice)",also measured
"Cc1cc(O)c(C)c(C)c1CC(N)C(=O)N[C@@H]1CSSC(C)(C)[C@H](C(=O)O)NC(=O)[C@H](Cc2ccccc2)NC1=O (single isomer, unassigned) [Example 82 (Diastereomer B), 2,3,6-trimethyltyrosyl-D-cysteinyl-L-phenylalanyl-3-mercapto-D-valine, cyclic (2→4)-disulfide, monohydrochloride]",81,–,–,–,–
"Cc1cc(O)ccc1CC(N)C(=O)N[C@@H]1CSSC(C)(C)[C@H](C(=O)O)NC(=O)[C@H](Cc2ccccc2)NC1=O (single isomer, unassigned) [Example 5 (Diastereomer B)]",15,–,–,–,–
"Cc1ccc(CC(N)C(=O)N[C@@H]2CSSC(C)(C)[C@H](C(=O)O)NC(=O)[C@H](Cc3ccccc3)NC2=O)c(C)c1O (single isomer, unassigned) [Example 81 (Diastereomer B), 3-hydroxy-2,4-dimethylphenylalanyl-D-cysteinyl-L-phenylalanyl-3-mercapto-D-valine, cyclic (2→4)-disulfide, monohydrochloride]",–,19,–,–,–
"COC(=O)[C@@H]1NC(=O)[C@H](Cc2ccc(F)cc2)NC(=O)[C@H](NC(=O)[C@@H](N)Cc2c(C)cc(O)cc2C)CSSC1(C)C [Example 67, 2,6-dimethyl-L-tyrosyl-D-cysteinyl-4-fluoro-L-phenylalanyl-3-mercapto-D-valine, cyclic (2→4)-disulfide, methyl ester, monohydrochloride] (H-[Dmt][dC][Phe(4-F)][dPen]-OMe; disulfide 2-4)",2.4,–,1/10,2/10,–
"Cc1cc(O)ccc1CC(N)C(=O)N[C@@H]1CSSC(C)(C)[C@H](C(=O)O)NC(=O)[C@H](Cc2ccccc2)NC1=O (single isomer, unassigned) [Example 5 (Diastereomer A)]",48,–,–,–,–
"COC(=O)[C@@H]1NC(=O)[C@H](CC2CCCCC2)NC(=O)[C@H](NC(=O)[C@@H](N)Cc2c(C)cc(O)cc2C)CSSC1(C)C [Example 46, 2,6-dimethyl-L-tyrosyl-D-cysteinyl-3-cyclohexyl-L-alanyl-3-mercapto-D-valine, cyclic (2→4)-disulfide, methyl ester, monohydrochloride] (H-[Dmt][dC][Cha][dPen]-OMe; disulfide 2-4)",0.6,–,4/10,5/10,–
"COC(=O)[C@@H]1NC(=O)[C@H](Cc2ccccc2)NC(=O)C(NC(=O)[C@@H](N)Cc2c(C)cc(O)cc2C)CCSSC1(C)C (single isomer, unassigned) [Example 73, 2,6-dimethyl-L-tyrosylhomocysteinyl-L-phenylalanyl-3-mercapto-D-valine, cyclic (2→4)-disulfide, methyl ester, monohydrochloride]",–,0.10,–,6/10,"number of mice out of ten in which peptide was active, Intragastric (CD Charles River mice; listed as Test Tetrapeptide No. 5, monohydrochloride, 10 mg/kg): 5/10"
"COC(=O)[C@@H]1NC(=O)[C@H](CC2CCCCC2)N(C)C(=O)[C@H](NC(=O)[C@@H](N)Cc2c(C)cc(O)cc2C)CSSC1(C)C [Example 53, 2,6-dimethyl-L-tyrosyl-D-cysteinyl-3-cyclohexyl-N-methyl-L-alanyl-3-mercapto-D-valine, cyclic (2→4)-disulfide, methyl ester, monohydrochloride] (H-[Dmt][dC][NMeCha][dPen]-OMe; disulfide 2-4)",12,–,3/10,3/10,–
"Cc1ccc(CC(N)C(=O)N[C@@H]2CSSC(C)(C)[C@H](C(=O)O)NC(=O)[C@H](Cc3ccccc3)NC2=O)c(C)c1O (single isomer, unassigned) [Example 81 (Diastereomer A), 3-hydroxy-2,4-dimethylphenylalanyl-D-cysteinyl-L-phenylalanyl-3-mercapto-D-valine, cyclic (2→4)-disulfide, monohydrochloride]",–,0.1,–,–,–
"COC(=O)[C@@H]1NC(=O)[C@H](Cc2ccccc2)N(C)C(=O)[C@H](NC(=O)[C@@H](N)Cc2c(C)cc(O)cc2C)CSSC1(C)C [Example 39, 2,6-dimethyl-L-tyrosyl-D-cysteinyl-N-methyl-L-phenylalanyl-3-mercapto-D-valine, cyclic (2→4)-disulfide, methyl ester, monohydrochloride] (H-[Dmt][dC][NMeF][dPen]-OMe; disulfide 2-4)",6.0,–,5/10,4/10,–
"COC(=O)[C@@H]1NC(=O)[C@H](Cc2cccs2)NC(=O)[C@H](NC(=O)[C@@H](N)Cc2c(C)cc(O)cc2C)CSSC1(C)C [Example 60, 2,6-dimethyl-L-tyrosyl-D-cysteinyl-3-(2-thienyl)-L-alanyl-3-mercapto-D-valine, cyclic (2→4)-disulfide, methyl ester, monohydrochloride] (H-[Dmt][dC][2Thi][dPen]-OMe; disulfide 2-4)",1.4,–,–,–,–
"COC(=O)[C@@H]1NC(=O)[C@H](Cc2ccccc2)NC(=O)C(NC(=O)[C@@H](N)Cc2c(C)cc(O)cc2C)CCSSC1(C)C (single isomer, unassigned) [Example 72, 2,6-dimethyl-L-tyrosylhomocysteinyl-L-phenylalanyl-3-mercapto-D-valine, cyclic (2→4)-disulfide, methyl ester, monohydrochloride]",–,0.4,–,6/10,"number of mice out of ten in which peptide was active, Intragastric (CD Charles River mice; listed as Test Tetrapeptide No. 4, monohydrochloride, 10 mg/kg): 1/10"
